Laboratory results from patent US9403811B2, “Crystalline forms of azilsartan medoxomil potassium and preparation and uses thereof” (SUNSHINE LAKE PHARMA CO., LTD., priority 2012, dated 2016).

Legend:
Solubility test = format: physicochemical; settings: for Solubility: THF (volume of solvent in which the solid dissolved): 0.50 g solid added to THF at room temperature; for Solubility: THF (volume of solvent in which the solid dissolved) / Solubility: Acetone (volume of solvent in which the solid dissolved) / Solubility: Ethanol (volume of solvent in which the solid dissolved) / Solubility: Ethyl acetate (volume of solvent in which the solid dissolved) / Solubility: Methanol (volume of solvent in which the solid dissolved): shaking 30 seconds every 5 minutes, observed with eyes; for Solubility: Acetone (volume of solvent in which the solid dissolved): 0.50 g solid added to acetone at room temperature; for Solubility: Ethanol (volume of solvent in which the solid dissolved): 0.50 g solid added to ethanol at room temperature; for Solubility: Ethyl acetate (volume of solvent in which the solid dissolved): 0.50 g solid added to ethyl acetate at room temperature; for Solubility: Methanol (volume of solvent in which the solid dissolved): 0.50 g solid added to methanol at room temperature; for Solubility: Result: 0.50 g solid in the listed solvent volumes, room temperature, dissolved = no solid detected by human eyes
Protocol: The crystalline form C, D, F, H, J and L of azilsartan medoxomil potassium (0.50 g) was added to the solvent at room temperature. […] The solid was deemed as dissolved when no solid was detected in the mixture by human eyes.
The solubility data of crystalline forms C, D, F, H, J and L of azilsartan medoxomil potassium are as shown below.

Stability test = format: physicochemical
Protocol: The stability test of the crystalline form C was conducted under the following conditions:
Storage condition 1: stored under conditions of 40° C./RH75% in a sealed state for 3 and 6 months. […] During the whole test period, no change in total amount of impurities was recognized as compared with that before the beginning of the test.
Storage condition 2: stored under conditions of 40° C./RH75% in an unsealed state for 1 and 3 months.

Solubility: THF (volume of solvent in which the solid dissolved) (Solubility test) | Solubility: Acetone (volume of solvent in which the solid dissolved) (Solubility test) [mL] | Solubility: Ethanol (volume of solvent in which the solid dissolved) (Solubility test) | Solubility: Ethyl acetate (volume of solvent in which the solid dissolved) (Solubility test) [mL] | Solubility: Methanol (volume of solvent in which the solid dissolved) (Solubility test) | Solubility: Result (Solubility test) | conversion of the crystalline form into other polymorphs (Stability test; storage condition 1: 40° C./RH75%, sealed state, after six months) | change in total amount of impurities compared with before the beginning of the test (Stability test; storage condition 1: 40° C./RH75%, sealed state, whole test period (3 and 6 months)) | total amount of impurities compared with before the beginning of the test (Stability test; storage condition 2: 40° C./RH75%, unsealed state, 1 and 3 months) | conversion of the crystalline form into other polymorphs (Stability test; storage condition 2: 40° C./RH75%, unsealed state, after three months) | SMILES
13 mL | 8 | 6 mL | 10 | 5 mL | dissolved | could not be confirmed | no change | increased | could not be confirmed | CCOc1nc2cccc(C(=O)OCc3oc(=O)oc3C)c2n1Cc1ccc(-c2ccccc2-c2noc(=O)[n-]2)cc1.[K+] [Form C, azilsartan medoxomil potassium]
16.5 ml^ | 9 | 5 mL | 12 | 4 mL | dissolved |  |  |  |  | CCOc1nc2cccc(C(=O)OCc3oc(=O)oc3C)c2n1Cc1ccc(-c2ccccc2-c2noc(=O)[n-]2)cc1.[K+] [Form D, azilsartan medoxomil potassium]
15 mL | 12 | 6 mL | 16 | 4.5 ml^ | dissolved |  |  |  |  | CCOc1nc2cccc(C(=O)OCc3oc(=O)oc3C)c2n1Cc1ccc(-c2ccccc2-c2noc(=O)[n-]2)cc1.[K+] [Form F, azilsartan medoxomil potassium]
14 mL | 10 | 8 mL | 13 | 6 mL | dissolved |  |  |  |  | CCOc1nc2cccc(C(=O)OCc3oc(=O)oc3C)c2n1Cc1ccc(-c2ccccc2-c2noc(=O)[n-]2)cc1.[K+] [Form H, azilsartan medoxomil potassium]
12 mL | 8 | 5.5 ml^ | 11 | 4 mL | dissolved |  |  |  |  | CCOc1nc2cccc(C(=O)OCc3oc(=O)oc3C)c2n1Cc1ccc(-c2ccccc2-c2noc(=O)[n-]2)cc1.[K+] [Form J, azilsartan medoxomil potassium]
17 mL | 11 | 6 mL | 14 | 5 mL | dissolved |  |  |  |  | CCOc1nc2cccc(C(=O)OCc3oc(=O)oc3C)c2n1Cc1ccc(-c2ccccc2-c2noc(=O)[n-]2)cc1.[K+] [Form L, azilsartan medoxomil potassium]
